Like-named read-outs stand apart in the source and are kept apart here.
How the values were obtained:
[1] = target: SARS-CoV-2 main protease (M^pro or 3CL^pro) (Severe acute respiratory syndrome coronavirus 2, UniProt P0DTD1); assay: biochemical
MERS-CoV 3CL^pro = conditions: cited from earlier work
[2] = In vitro SARS-COV-2 M^pro IC50, FRET-based assay, mean ± SD

Work on `C=C(C)C(C=C[C@@H](C)[C@H]1CC[C@H]2[C@@H]3CC=C4CC(O)CC[C@]4(C)[C@H]3CC[C@]12C)CC` (stereo partly drawn) [Compound 1, 24-β-ethyl-cholesta-5(6),22(23),25(26)-triene-3-ol] yielded an IC50 ([1]; In vitro SARS-COV-2 M^pro IC50) of 12.5 ± 0.64 µM.

In the case of `C[C@H]1[C@H](C)CC[C@]2(C)CC[C@]3(C)C(=CC[C@@H]4[C@@]5(C)CC[C@H](O)C(C)(C)[C@@H]5CC[C@]43C)[C@H]12` [Compound 2, α-amyrin], the IC50 [1, 2] is reported as 4.18 ± 0.21 µM.

`CCCCC/C=C\C/C=C\CCCCCCCC(=O)O` [Compound 3, linoleic acid] showed an IC50 [1, 2] of 20.7 ± 1.05 µM.

With `COc1cc(C2CC(=O)c3c(O)cc(O)c(OC)c3O2)ccc1O` (stereo not drawn) [Compound 8, 5,7,4′-trihydroxy-8,3′-dimethoxy flavanone] the IC50 [1, 2] was 27.9 ± 1.42 µM.

With `COc1c(O)cc2c(c1O)C(=O)CC(c1ccc(O)cc1)O2` (stereo not drawn) [Compound 9, 5,7,4′-trihydroxy-6-methoxy flavanone] the IC50 [1, 2] was 11.8 ± 0.6 µM.

Compound `COc1cc(-c2cc(=O)c3c(O)cc(OC)c(OC)c3o2)ccc1O` [Compound 10, 4′,5-dihydroxy-3′,7,8-trimethoxyflavone] has an IC50 [1, 2] of 12.8 ± 0.65 µM.

With `COc1cc(-c2cc(=O)c3c(O)cc(O)c(OC)c3o2)cc(OC)c1OC` [Compound 11, 5,7-dihydroxy-3′,4′,5′,8-tetramethoxy flavone] the IC50 [1, 2] was 5.07 ± 0.26 µM.

For `COc1c(O)cc2c(c1O)C(=O)CC(c1cc(O)cc(O)c1)O2` (stereo not drawn) [Compound 13, 3′,5′,5,7-tetrahydroxy-6-methoxyflavanone], the IC50 [1, 2] was 5.56 ± 0.28 µM.

Compound `O=c1cc(-c2ccc(O)c(O)c2)oc2c([C@@H]3O[C@H](CO)[C@@H](O)[C@H](O)[C@H]3O)c(O)cc(O)c12` [Compound 16, orientin] has an IC50 [1, 2] of 27.5 ± 1.4 µM.

`O=c1cc(-c2ccc(O)c(O[C@@H]3O[C@H](CO)[C@@H](O)[C@H](O)[C@H]3O)c2)oc2cc(O)cc(O)c12` [Compound 17, luteolin-3′-O-β-D-glucoside] gave an IC50 ([1]; read-out: In vitro SARS-COV-2 M^pro IC50) of 10.1 ± 0.52 µM.

For `COc1cc(O)cc(O)c1C(=O)/C=C/c1ccc(O)cc1` [Helichrysetin], the “Inhibition of MERS-CoV 3CL^pro” value (MERS-CoV 3CL^pro) is given as “able to inhibit MERS-CoV 3CL^pro”.

With `Cc1cccc(C)c1OCC(=O)N[C@@H](Cc1ccccc1)[C@@H](O)C[C@H](Cc1ccccc1)NC(=O)[C@H](C(C)C)N1CCCNC1=O` [Lopinavir, reference compound] the IC50 [1, 2] was 0.225 ± 0.01 µM.

Reference: publication PMC9214608 (RSC Advances, 2022)
